The values below come from ChEMBL document CHEMBL4840303, “Design, synthesis, biological evaluation and pharmacophore model analysis of novel tetrahydropyrrolo[3,4-c]pyrazol derivatives as potential TRKs inhibitors” (Eur J Med Chem, 2021).

Assay [1] addresses High affinity nerve growth factor receptor (Homo sapiens, UniProt P04629). Description: Inhibition of N-terminal GST-tagged human TRKA (436 to 790 residues) expressed in baculovirus infected Sf21 cells using TK as substrate in presence of ATP measured after 30 mins by HTRF assay.
The target of assay [2] is T1, BDNF/NT-3 growth factors receptor (Homo sapiens, UniProt Q16620). Kind of assay: Inhibition of N-terminal GST-tagged human TRKB (456 to 822 residues) expressed in baculovirus infected Sf21 cells using TK as substrate in presence of ATP measured after 40 mins by HTRF assay.
Another assay relates to KM12. Description: cells. To be noted: Homo sapiens, KM12, 72 h.
Assay [3] has as its target T1, BDNF/NT-3 growth factors receptor. Kind of assay: Inhibition of BDNF-activated full length TRKB (unknown origin) by Cell-based beta-galactosidase PathHunter assay.
For assay [4], the target named is NT-3 growth factor receptor (Homo sapiens, UniProt Q16288). Kind of assay: Inhibition of NT3-activated full length TRKC (unknown origin) by Cell-based beta-galactosidase PathHunter assay.
A further assay concerns A549. Kind of assay: cells. The following applies: Homo sapiens, A549, 72 h.
The subject of the next assay is THLE-2. Kind of assay: cells. The following applies: Homo sapiens, THLE-2, 72 h.

T1 sequence (Q16620 whole entry, the tested form may be a part): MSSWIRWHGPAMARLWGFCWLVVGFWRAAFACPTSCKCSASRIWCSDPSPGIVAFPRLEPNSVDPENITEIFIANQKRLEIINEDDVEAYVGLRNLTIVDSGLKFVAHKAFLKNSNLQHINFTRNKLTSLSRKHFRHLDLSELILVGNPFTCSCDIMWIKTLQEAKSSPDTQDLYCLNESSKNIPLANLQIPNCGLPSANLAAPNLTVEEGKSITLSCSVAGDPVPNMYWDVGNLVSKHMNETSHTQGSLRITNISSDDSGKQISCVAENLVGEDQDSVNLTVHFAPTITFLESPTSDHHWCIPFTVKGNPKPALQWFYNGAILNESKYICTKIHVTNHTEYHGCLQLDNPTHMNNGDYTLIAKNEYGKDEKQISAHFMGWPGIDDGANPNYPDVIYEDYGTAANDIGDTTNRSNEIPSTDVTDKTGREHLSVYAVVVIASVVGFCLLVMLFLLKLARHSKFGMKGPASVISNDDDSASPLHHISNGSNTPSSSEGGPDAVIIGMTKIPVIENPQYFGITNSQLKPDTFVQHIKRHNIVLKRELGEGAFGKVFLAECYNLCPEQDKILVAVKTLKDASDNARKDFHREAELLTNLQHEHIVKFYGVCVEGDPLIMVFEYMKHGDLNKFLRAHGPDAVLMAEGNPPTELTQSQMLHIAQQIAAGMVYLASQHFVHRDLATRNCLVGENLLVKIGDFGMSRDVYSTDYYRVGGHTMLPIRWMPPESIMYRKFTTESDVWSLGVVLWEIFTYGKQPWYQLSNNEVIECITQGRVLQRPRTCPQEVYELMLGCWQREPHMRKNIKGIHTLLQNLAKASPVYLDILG
High affinity nerve growth factor receptor, sequence (P04629 whole entry, the tested form may be a part): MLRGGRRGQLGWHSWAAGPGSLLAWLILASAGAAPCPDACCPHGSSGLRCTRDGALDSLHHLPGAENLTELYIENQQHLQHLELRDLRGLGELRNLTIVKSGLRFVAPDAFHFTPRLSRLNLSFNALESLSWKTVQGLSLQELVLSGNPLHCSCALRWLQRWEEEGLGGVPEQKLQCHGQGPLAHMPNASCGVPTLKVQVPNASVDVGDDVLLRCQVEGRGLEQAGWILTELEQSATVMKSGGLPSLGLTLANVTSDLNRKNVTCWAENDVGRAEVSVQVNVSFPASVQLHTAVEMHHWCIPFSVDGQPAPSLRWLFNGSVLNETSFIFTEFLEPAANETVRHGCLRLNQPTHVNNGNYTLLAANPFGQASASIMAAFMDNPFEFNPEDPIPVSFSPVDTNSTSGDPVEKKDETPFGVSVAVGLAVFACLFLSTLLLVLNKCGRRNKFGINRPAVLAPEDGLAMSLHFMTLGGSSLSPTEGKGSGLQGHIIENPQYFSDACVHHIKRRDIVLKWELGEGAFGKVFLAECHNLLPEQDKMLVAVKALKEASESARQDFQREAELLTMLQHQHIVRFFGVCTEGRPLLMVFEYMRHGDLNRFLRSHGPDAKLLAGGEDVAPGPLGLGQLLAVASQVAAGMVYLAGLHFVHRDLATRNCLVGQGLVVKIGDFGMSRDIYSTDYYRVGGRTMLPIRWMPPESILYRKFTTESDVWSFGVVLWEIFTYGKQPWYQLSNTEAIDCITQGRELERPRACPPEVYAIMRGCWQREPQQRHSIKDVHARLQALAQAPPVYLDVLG
NT-3 growth factor receptor, sequence (Q16288 whole entry): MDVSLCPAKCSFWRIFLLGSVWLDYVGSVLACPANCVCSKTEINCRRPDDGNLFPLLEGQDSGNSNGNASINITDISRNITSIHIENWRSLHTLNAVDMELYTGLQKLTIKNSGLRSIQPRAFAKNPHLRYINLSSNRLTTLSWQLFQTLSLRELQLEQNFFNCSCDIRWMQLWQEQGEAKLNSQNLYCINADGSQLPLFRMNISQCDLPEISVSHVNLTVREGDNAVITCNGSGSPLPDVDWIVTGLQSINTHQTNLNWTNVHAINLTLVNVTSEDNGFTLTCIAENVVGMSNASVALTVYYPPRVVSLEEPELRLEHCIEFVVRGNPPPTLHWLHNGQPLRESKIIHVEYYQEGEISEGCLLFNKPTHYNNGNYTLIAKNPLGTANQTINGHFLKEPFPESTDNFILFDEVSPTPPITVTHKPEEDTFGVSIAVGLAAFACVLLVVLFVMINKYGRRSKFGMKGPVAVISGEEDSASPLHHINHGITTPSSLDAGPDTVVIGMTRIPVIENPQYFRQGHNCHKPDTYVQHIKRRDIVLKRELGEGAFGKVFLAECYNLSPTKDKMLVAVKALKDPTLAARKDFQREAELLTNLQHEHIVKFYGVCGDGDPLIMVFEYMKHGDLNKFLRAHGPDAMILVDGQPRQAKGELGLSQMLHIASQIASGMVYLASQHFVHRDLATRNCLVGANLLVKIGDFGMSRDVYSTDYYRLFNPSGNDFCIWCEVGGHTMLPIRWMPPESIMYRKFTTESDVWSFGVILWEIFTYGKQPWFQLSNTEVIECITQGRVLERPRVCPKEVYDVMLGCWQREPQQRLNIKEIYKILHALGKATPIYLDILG
Description for A549: Antiproliferative activity against human A549 cells assessed as inhibition of cell growth measured after 72 hrs by CCK-8 assay
Description for KM12: Antiproliferative activity against human KM12 cells assessed as inhibition of cell growth measured after 72 hrs by CCK-8 assay
Description for THLE-2: Antiproliferative activity against human THLE-2 cells assessed as inhibition of cell growth measured after 72 hrs by CCK-8 assay

As to `CC1(C)c2[nH]nc(NC(=O)c3ccc(Br)cc3)c2CN1Cc1cc(F)cc(F)c1`, in assay [1], the IC50 came to 710 nM. Still for that read-out and setting: as for `CC1(C)c2[nH]nc(NC(=O)c3ccc4ccccc4c3)c2CN1Cc1cc(F)cc(F)c1`, the figure is 440 nM.

In the case of `CN(C)c1cccc(C(=O)Nc2n[nH]c3c2CN(Cc2cccc(F)c2F)C3(C)C)c1`, the IC50 in assay [1] came to 420 nM. The same measure, in the same setting: as for `CC1(C)c2[nH]nc(NC(=O)c3ccccc3)c2CN1Cc1cccc(F)c1F`, the figure is 200 nM. Regarding `CN1CCN(c2cccc(C(=O)Nc3n[nH]c4c3CN(Cc3cc(F)cc(F)c3)C4(C)C)c2)CC1`, the values for the IC50 (in assay [1]; in assay [2]; with KM12) were 150 nM, 190 nM and more than 1000 nM, respectively. As to `CC1(C)c2[nH]nc(NC(=O)c3ccccc3)c2CN1Cc1cc(C(F)(F)F)cc(C(F)(F)F)c1`, the half-maximal inhibitory concentration (IC50) in assay [1] was determined as 16400 nM. The same measure, in the same setting: to `CC1(C)c2[nH]nc(NC(=O)c3ccccc3)c2CN1Cc1cccc(Cl)c1` belongs 670 nM. As to `CC1(C)c2[nH]nc(NC(=O)c3cccc(N4CCOCC4)c3)c2CN1Cc1cccc(F)c1F`, the IC50 in assay [1] stood at 270 nM. The same measure, in the same setting: as for `CN(C)c1cccc(C(=O)Nc2n[nH]c3c2CN(Cc2cc(F)cc(F)c2)C3(C)C)c1`, the figure is 270 nM.

With `Cc1cccc(CN2Cc3c(NC(=O)c4ccccc4)n[nH]c3C2(C)C)c1`, in assay [1], the concentration for half-maximal inhibition (IC50) worked out at 1100 nM. In the case of `CN1CCN(c2cccc(C(=O)Nc3n[nH]c4c3CN(Cc3cccc(F)c3F)C4(C)C)c2)CC1`, in assay [1], the IC50 was found to be 210 nM. `Cc1ccc(CN2Cc3c(NC(=O)c4ccccc4)n[nH]c3C2(C)C)cc1F`: the 50% inhibitory concentration (IC50) in assay [1] was 940 nM. Still for that read-out and setting: as for `CC1(C)c2[nH]nc(NC(=O)c3ccccc3)c2CN1Cc1c(F)cccc1F`, the figure is 520 nM. For the compound `CC1(C)c2[nH]nc(NC(=O)c3ccc(F)cc3)c2CN1Cc1cc(F)cc(F)c1`, the IC50 in assay [1] stood at 350 nM. On to `CC1(C)c2[nH]nc(NC(=O)c3ccc4ccccc4c3)c2CN1Cc1cccc(F)c1F`, for which the IC50 in assay [1] is 460 nM. On the same count and under the same terms, as for `CC1(C)c2[nH]nc(NC(=O)c3ccccc3)c2CN1Cc1ccc(F)cc1`, the figure is 1180 nM; as for `CC1(C)c2[nH]nc(NC(=O)c3ccccc3)c2CN1Cc1cc(F)ccc1F`, 480 nM.

On to `Cc1ncc(NC(=O)NC2c3ccccc3-c3ccccc32)c(-c2ccccc2)n1`, for which the IC50 in assay [3] is more than 8100 nM; in assay [4], 2500 nM. As for `CC1(C)c2[nH]nc(NC(=O)c3ccc(Br)cc3)c2CN1Cc1cccc(F)c1F`, the concentration for half-maximal inhibition (IC50) in assay [1] came out at 950 nM. `CC1(C)c2[nH]nc(NC(=O)c3ccccc3)c2CN1Cc1cccc(I)c1`: the 50% inhibitory concentration (IC50) in assay [1] amounted to 1360 nM. For the compound `CC1(C)c2[nH]nc(NC(=O)c3ccccc3)c2CN1Cc1cc(F)cc(F)c1`, the concentration for half-maximal inhibition (IC50) in assay [1] stood at 190 nM. As for `CN(C)c1ccc(C(=O)Nc2n[nH]c3c2CN(Cc2cc(F)cc(F)c2)C3(C)C)cc1`, the 50% inhibitory concentration (IC50) in assay [1] is 96 nM. As to `COc1cccc(CN2Cc3c(NC(=O)c4ccccc4)n[nH]c3C2(C)C)c1`, the IC50 in assay [1] turned out to be 1120 nM. Take `CC1(C)c2[nH]nc(NC(=O)c3ccc(N4CC[N+](C)(Cc5cc(F)cc(F)c5)CC4)cc3)c2CN1Cc1cc(F)cc(F)c1`: the IC50 in assay [1] was found to be 95 nM. Regarding `CC1(C)c2[nH]nc(NC(=O)c3cccc(N4CCOCC4)c3)c2CN1Cc1cc(F)cc(F)c1`, the IC50 in assay [1] is 120 nM; in assay [2], 170 nM; with KM12 it was more than 1000 nM. In the case of `CC1(C)c2[nH]nc(NC(=O)c3ccccc3)c2CN1Cc1ccccc1`, the IC50 in assay [1] came to 1240 nM. In the case of `CC1(C)c2[nH]nc(NC(=O)c3ccccc3)c2CN1Cc1ccc(F)c(F)c1`, the 50% inhibitory concentration (IC50) in assay [1] turned out to be 680 nM. Take `CC1(C)c2[nH]nc(NC(=O)c3ccccc3)c2CN1Cc1cccc(F)c1`: the IC50 in assay [1] worked out at 470 nM. In the case of `CC1(C)c2[nH]nc(NC(=O)c3ccc4ncccc4c3)c2CN1Cc1cc(F)cc(F)c1`, in assay [1], the IC50 is 180 nM. With `Cc1ccc(F)c(CN2Cc3c(NC(=O)c4ccccc4)n[nH]c3C2(C)C)c1`, in assay [1], the IC50 was determined as 880 nM. Same read-out and setting: as for `CC1(C)c2[nH]nc(NC(=O)c3ccccc3)c2CN1Cc1cc(F)c(F)c(F)c1`, the figure is 6960 nM; as for `CC1(C)c2[nH]nc(NC(=O)c3ccccc3)c2CN1Cc1ccc(F)cc1F`, 2320 nM. Turning to `CC1(C)c2[nH]nc(NC(=O)c3ccc(N4CCOCC4)cc3)c2CN1Cc1cc(F)cc(F)c1`, the concentration for half-maximal inhibition (IC50) in assay [1] was 14 nM; in assay [2], 27 nM; with KM12, 211 nM; in the assay on A549 it was more than 100000 nM; with THLE-2, more than 100000 nM. In the case of `CC1(C)c2[nH]nc(NC(=O)c3ccc(F)cc3)c2CN1Cc1cccc(F)c1F`, the IC50 in assay [1] was 210 nM. Consider `CC1(C)c2[nH]nc(NC(=O)c3ccccc3)c2CN1Cc1cc(F)cc(C(F)(F)F)c1`, for which, in assay [1], the IC50 is 1000 nM. With `CC1(C)c2[nH]nc(NC(=O)c3ccccc3)c2CN1Cc1cccc(C#N)c1`, the IC50 in assay [1] turned out to be 980 nM.

With `CC1(C)c2[nH]nc(NC(=O)c3ccccc3)c2CN1Cc1cccc([N+](=O)[O-])c1`, in assay [1], the IC50 came out at 600 nM. Still for that read-out and setting: to `CN(C)c1ccc(C(=O)Nc2n[nH]c3c2CN(Cc2cccc(F)c2F)C3(C)C)cc1` belongs 69 nM. Regarding `CN1CCN(c2ccc(C(=O)Nc3n[nH]c4c3CN(Cc3cccc(F)c3F)C4(C)C)cc2)CC1`, the half-inhibitory concentration (IC50) in assay [1] is 17 nM; in assay [2] it was 23 nM; in the assay with KM12, 216 nM; in the assay on A549 it was 64200 nM; with THLE-2, more than 100000 nM. Take `CC1(C)c2[nH]nc(NC(=O)c3ccc(N4CCOCC4)cc3)c2CN1Cc1cccc(F)c1F`: the 50% inhibitory concentration (IC50) in assay [1] came to 29 nM; in assay [2] it was 35 nM; with KM12 it was 146 nM; in the assay with A549, 88500 nM; with THLE-2 it was 49500 nM.

On to `CC1(C)c2[nH]nc(NC(=O)c3ccccc3)c2CN1Cc1ccccc1F`, for which the IC50 in assay [1] came to 450 nM. The same measure, in the same setting: as for `CC1(C)c2[nH]nc(NC(=O)c3ccccc3)c2CN1Cc1cccc(Br)c1`, the figure is 940 nM.
